# Experimental data from patent US20160256433A1, “Formulations Containing Amorphous Dapagliflozin” (SANDOZ AG, priority 2013, published 2016).
# Where two headings read alike, the source gives them in different places.
# Legend:
# [1] = for water absorbed: at 80% relative air humidity (RH)
# [2] = for pH of suspension after 24 hours of testing: 37° C.
# physchem = conditions: for solubility at 24 h: thermodynamic from solid
# [3] = medium of pH 1.2, 37 °C, pH 1.2, simulated gastric fluid
# [4] = medium of pH 6.8, 37 °C, pH 6.8, aqueous buffer
SMILES,water absorbed [1],pH of suspension after 24 hours of testing ([2]; medium pH 1.2),pH of suspension after 24 hours of testing ([2]; medium pH 6.8),pH of suspension after 24 hours of testing ([2]; medium water),solubility at 24 h (physchem; [3]),solubility at 24 h (physchem; [4]),"solubility at 24 h (physchem; water, 37 °C)",other results
CCOc1ccc(Cc2cc([C@@H]3O[C@H](CO)[C@@H](O)[C@H](O)[C@H]3O)ccc2Cl)cc1,around 0.8%,1.3,6.8,3.2,1700 µg/mL,1700 µg/mL,1800 µg/mL,–
"CCOc1ccc(Cc2cc([C@@H]3OC(CO)[C@@H](O)C(O)C3O)ccc2Cl)cc1 (stereo partly drawn) [amorphous dapagliflozine, (2S,3R,4R,5S,6R)-2-[4-chloro-3-(4-ethoxybenzyl)phenyl]-6-(hydroxymethyl)tetrahydro-2H-pyran-3,4,5-triole]",around 6%,1.2,6.7,7.4,1200 µg/mL,1200 µg/mL,1200 µg/mL,"water irreversibly absorbed ([1]; during the first sorption/desorption cycle): around 3%; Desciptive term (solubility) ([2]; medium pH 1.2): Slightly soluble; Desciptive term (solubility) ([2]; medium pH 3.0): Slightly soluble; pH of suspension after 24 hours of testing ([2]; medium pH 3.0): 2.9; Desciptive term (solubility) ([2]; medium pH 4.5): Slightly soluble; pH of suspension after 24 hours of testing ([2]; medium pH 4.5): 4.5; Desciptive term (solubility) ([2]; medium pH 6.8): Slightly soluble; Desciptive term (solubility) ([2]; medium pH 7.4): Very slightly soluble; pH of suspension after 24 hours of testing ([2]; medium pH 7.4): 7.2; Desciptive term (solubility) ([2]; medium water): Slightly soluble; solubility at 24 h (physchem; medium of pH 3.0, 37 °C, pH 3, aqueous buffer): 1100 µg/mL; solubility at 24 h (physchem; medium of pH 4.5, 37 °C, pH 4.5, aqueous buffer): 1200 µg/mL; solubility at 24 h (physchem; medium of pH 7.4, 37 °C, pH 7.4, aqueous buffer): 700 µg/mL; solubility (physchem; water): ~1000 µg/mL"
